Data on 21 compounds can be found in US8404683B2, “Inhibitors of the interaction between MDM2 and P53” (Janssen Pharmaceutical N.V., priority 2004, dated 2013).

Structures can show the parent of a compound that is named as a salt.

The term melting point denotes the temperature, or range, at which the solid turns liquid.

One data set deals with U87MG cells. In words: Proliferation assay (MTT-based) on U87MG tumour cells. Particulars: Homo sapiens, U-87 MG, 96 h, 4 days of incubation, negative log value of the IC50-value, read-out: cell proliferation pIC50 (converted). The essentials: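 Human glioblastoma U87MG cells (wild-type p53) exposed to compound for 4 days at ≤0.1% DMSO, then MTT added for 2 h at 37 °C and absorbance read at 540 nm. Growth expressed as % of untreated control; IC50 by probit analysis, reported as pIC50.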

The compound `CCOc1cc(Nc2ccnc3c2CCC3O)ccc1NCCc1c[nH]c2cc(OC)ccc12` (stereo not drawn) [Compound 112] returned a melting point of 194 °C. In the data set on U87MG cells, the IC50 is 0.0316 µM.

Consider `c1ccc2c(CCNc3ccc(NCc4ccncc4)cc3)c[nH]c2c1` (as salt: salt) [Compound 9], for which the melting point is 132 °C.

In turn, `O=c1cc(Nc2ccc(NCCc3c[nH]c4ccccc34)cc2)c2ccccc2[nH]1` [Compound 3] yielded a melting point of 238 °C. Further, in the data set with U87MG cells, the IC50 was 5.01 µM.

With `OC1CCCc2c(Nc3ccc(NCCc4c[nH]c5ccccc45)cc3)ccnc21` (stereo not drawn) [Compound 111], the melting point came to 104 °C. Besides, in the data set on U87MG cells, the IC50 is 0.0794 µM.

`COc1ccc2c(CNc3ccc(Nc4ccncc4)cc3)c[nH]c2c1` [Compound 7] had a melting point of 145 °C. Moreover, in the data set with U87MG cells, the IC50 is 2 µM.

Turning to `Cn1cc(CCN(c2ccncc2)c2ccc(Nc3ccncc3)cc2)c2ccccc21` (as salt: hydrochloric acid salt) [Compound 10], the melting point is greater than 250 °C.

Compound `c1cncc(Nc2ccc(NCCc3c[nH]c4ccccc34)cc2)c1` (as salt: HCl) [Compound 6] gave a melting point of 160 °C.

With `c1cncc(CNc2ccc(NCCc3c[nH]c4ccccc34)cc2)c1` (as salt: hydrochloric acid salt) [Compound 121], the melting point amounted to 130 °C.

Take `c1ccc(Cc2noc(-c3cc(Nc4ccc(NCCc5c[nH]c6ccccc56)cc4)ccn3)n2)cc1` [Compound 108]: the melting point is 159 to 161 °C.

`c1ccc(-c2noc(-c3cc(Nc4ccc(NCCc5c[nH]c6ccccc56)cc4)ccn3)n2)cc1` [Compound 107] came in with a melting point of 170 to 174 °C.

Consider `c1ccc2c(Nc3ccc(NCCc4c[nH]c5ccccc45)cc3)ccnc2c1` (as salt: HCl) [Compound 1], for which the melting point worked out at 170 °C.

`N#Cc1ccc2[nH]cc(C(O)C(=O)Nc3ccc(Nc4ccncc4)cc3)c2c1` (stereo not drawn) [Compound 113] returned a melting point of 154 °C. Further, the IC50 with U87MG cells was greater than 10 µM.

On to `c1ccc2c(CCNc3ccc(CNc4ccncc4)cc3)c[nH]c2c1` [Compound 11], for which the melting point was 122 °C. Further, the IC50 in the data set with U87MG cells was 5.01 µM.

As for `c1ccc2c(CCNc3ccc(Nc4ccnc(-c5nnn[nH]5)c4)cc3)c[nH]c2c1` [Compound 87], the melting point came out at 210 °C. Moreover, the IC50 in the data set on U87MG cells was greater than 10 µM.

`O=C(CCc1c[nH]c2ccccc12)Nc1ccc(Nc2ccncc2)cc1` [Compound 8]: the melting point was 208 °C. In addition, the IC50 with U87MG cells is 5.01 µM.

For the compound `c1ccc2c(CCNc3ccc(Nc4ncnc5[nH]ccc45)cc3)c[nH]c2c1` [Compound 117], the melting point came to 211 °C. The IC50 with U87MG cells was greater than 10 µM.

Turning to `CCOc1cc(Nc2ccncc2)ccc1NCCc1c[nH]c2ccccc12` (as salt: hydrochloric acid salt) [Compound 2], the melting point came out at 150 °C.

`COCCOCc1cc(Nc2ccc(NCCc3c[nH]c4ccccc34)cc2)ccn1` [Compound 169]: the IC50 in the data set on U87MG cells was 0.398 µM.

On to `Cc1cnccc1Nc1ccc(NCCc2c[nH]c3ccccc23)cc1` [Compound 60], for which the IC50 in the data set on U87MG cells was 0.1 µM.

Take `Brc1ccc2c(CCNc3ccc(Nc4ccncc4)cc3)c[nH]c2c1` [Compound 192]: in the data set with U87MG cells, the IC50 is greater than 10 µM.

In the case of `c1cc(NCCCc2c[nH]c3ccccc23)cc(Nc2ccncc2)c1` [Compound 84], the IC50 in the data set on U87MG cells was 1.58 µM.
